This assay concerns the target Integrin alpha-IIb/beta-3 (Homo sapiens, UniProt P05106+P08514). In words: Inhibition of human platelet adhesion to fibrinogen.

Chain of Integrin alpha-IIb/beta-3 (P05106 27-788 limits assumed): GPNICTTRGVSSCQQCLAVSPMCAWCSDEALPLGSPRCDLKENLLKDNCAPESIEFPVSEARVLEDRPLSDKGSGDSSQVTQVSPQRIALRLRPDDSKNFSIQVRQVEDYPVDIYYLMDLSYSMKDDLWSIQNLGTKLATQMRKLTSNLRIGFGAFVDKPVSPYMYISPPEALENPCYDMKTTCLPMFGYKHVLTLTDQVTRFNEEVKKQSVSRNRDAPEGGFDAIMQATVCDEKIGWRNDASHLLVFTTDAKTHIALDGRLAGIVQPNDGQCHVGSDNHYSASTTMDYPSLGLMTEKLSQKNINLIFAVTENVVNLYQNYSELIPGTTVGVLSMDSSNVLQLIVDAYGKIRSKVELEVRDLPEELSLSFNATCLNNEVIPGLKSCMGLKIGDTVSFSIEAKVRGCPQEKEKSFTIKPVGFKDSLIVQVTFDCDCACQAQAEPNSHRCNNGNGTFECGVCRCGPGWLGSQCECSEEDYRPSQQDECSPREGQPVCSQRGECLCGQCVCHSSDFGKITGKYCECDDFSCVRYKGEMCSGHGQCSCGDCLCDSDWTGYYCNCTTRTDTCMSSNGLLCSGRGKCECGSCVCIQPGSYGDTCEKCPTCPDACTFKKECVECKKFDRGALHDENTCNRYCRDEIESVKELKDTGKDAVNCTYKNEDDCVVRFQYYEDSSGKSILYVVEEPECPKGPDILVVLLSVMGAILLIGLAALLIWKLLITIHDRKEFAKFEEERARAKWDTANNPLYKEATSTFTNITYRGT
Chain of Integrin alpha-IIb/beta-3 (P08514 32-887 limits assumed): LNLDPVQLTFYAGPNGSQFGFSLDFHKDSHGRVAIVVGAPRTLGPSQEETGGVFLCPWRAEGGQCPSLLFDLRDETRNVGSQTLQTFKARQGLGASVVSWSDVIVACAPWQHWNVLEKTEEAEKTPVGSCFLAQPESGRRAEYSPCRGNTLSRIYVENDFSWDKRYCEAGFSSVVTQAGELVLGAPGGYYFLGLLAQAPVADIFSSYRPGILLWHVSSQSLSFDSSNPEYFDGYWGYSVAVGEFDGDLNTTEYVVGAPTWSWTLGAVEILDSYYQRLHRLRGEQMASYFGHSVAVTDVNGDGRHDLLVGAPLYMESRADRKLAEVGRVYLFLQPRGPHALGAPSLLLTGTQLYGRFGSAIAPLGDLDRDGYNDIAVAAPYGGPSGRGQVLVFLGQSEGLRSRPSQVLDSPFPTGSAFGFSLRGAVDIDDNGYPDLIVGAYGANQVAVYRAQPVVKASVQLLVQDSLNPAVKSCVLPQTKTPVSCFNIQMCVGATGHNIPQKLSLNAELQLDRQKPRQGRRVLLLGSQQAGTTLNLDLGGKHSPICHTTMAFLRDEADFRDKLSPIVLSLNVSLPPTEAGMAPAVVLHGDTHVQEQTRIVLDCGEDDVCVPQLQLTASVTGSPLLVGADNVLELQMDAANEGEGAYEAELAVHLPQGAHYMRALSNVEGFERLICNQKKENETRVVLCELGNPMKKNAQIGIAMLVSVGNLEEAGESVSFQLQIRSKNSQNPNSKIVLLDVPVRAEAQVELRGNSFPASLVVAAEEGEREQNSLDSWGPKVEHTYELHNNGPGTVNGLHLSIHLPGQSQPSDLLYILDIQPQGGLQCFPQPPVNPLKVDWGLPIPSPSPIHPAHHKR
Chain of Integrin alpha-IIb/beta-3 (P08514 891-1039 limits assumed): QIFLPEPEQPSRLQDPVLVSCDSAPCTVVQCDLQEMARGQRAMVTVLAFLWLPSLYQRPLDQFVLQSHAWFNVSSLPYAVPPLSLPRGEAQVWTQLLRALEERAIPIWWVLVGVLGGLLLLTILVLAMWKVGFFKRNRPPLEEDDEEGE

As usually defined, the IC50 is the point on the concentration scale where inhibition reaches its midpoint. A high value points to lower potency. Turning to `CN(C(=O)[C@H](CC(=O)O)NC(=O)CCCCOc1ccc(C(=N)N)cc1)[C@@H](Cc1ccc(O)cc1)C(=O)O`, the half-maximal inhibitory concentration (IC50) is 270 nM.

On to `CC(C)[C@H](NC(=O)[C@H](CC(=O)O)NC(=O)CCCCOc1ccc(C(=N)N)cc1)C(=O)O`, for which inhibition was half-maximal at 230 nM (IC50).

With `N=C(N)c1ccc(OCCCCC(=O)N[C@@H](CC(=O)O)C(=O)N[C@@H](Cc2ccc(O)cc2)C(=O)O)cc1`, the midpoint of inhibition, the IC50, lay at 640 nM.

For `CC(C)[C@H](NC(=O)[C@H](CC(=O)O)NC(=O)CCCOc1ccc(C(=N)N)cc1)C(=O)O`, 88 nM corresponded to half-maximal inhibition (IC50).
